Assay results from the supplement of paper PMC11451515.

Legend:
Settings in all cases: 48 h
NOMO1 [1] = assay: cell viability relative to DMSO control; higher = less cytotoxic
Summary of the method: (§1)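 Viability, reported as a per-plate percentage of DMSO wells with cell-free wells as background, came from CellTiter-Glo One luminescence. Reading took place after 48 h at 37°C. Before that, NOMO1 or SEM (500 cells/well) or P12-Ichikawa (1000 cells/well) leukemia cells, adapted for at least four passages in each medium, were seeded in 1536-well plates (5 μl) and pin-dosed with library compounds in DMSO, 47 μM to 0.79 nM over 11 threefold points.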

P12-Ichikawa [2] = assay: as above
Summary of the method: as §1

SEM cells [3] = assay: as above
Summary of the method: as §1

NOMO1 [4] = assay: AUC of viability dose-response curve (% viability x log10 dose units); higher = less sensitive
Summary of the method: (§2)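 Leukemia cells adapted to each medium were seeded in 1536-well plates (500 or 1000 cells/well) and given library compounds in DMSO for 48 h at 37°C. The 11 threefold doses spanned 47 μM to 0.79 nM, and CellTiter-Glo One luminescence was normalised per plate to DMSO and cell-free wells before four-parameter log-logistic fitting on log10 dose. Area under the curve was integrated with the trapezoidal rule, scaling curves above full viability and removing curves that failed quality control.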

P12-Ichikawa [5] = assay: as above
Summary of the method: as §2

SEM cells [6] = assay: as above
Summary of the method: as §2

C\C1=C\N([C@H]2C[C@H](N=[N+]=[N-])[C@@H](CO)O2)C(=O)NC1=O
cell viability [%]
Settings	NOMO1 [1]	P12-Ichikawa [2]	SEM cells [3]
HPLM + 10% dialyzed FBS, 0.000781 µM	94.1	101	65.4
HPLM + 10% dialyzed FBS, 0.00234 µM	109	108	68.8
HPLM + 10% dialyzed FBS, 0.00702 µM	99.4	107	82.4
HPLM + 10% dialyzed FBS, 0.0211 µM	105	120	71
HPLM + 10% dialyzed FBS, 0.0632 µM	111	111	80.8
HPLM + 10% dialyzed FBS, 0.19 µM	120	111	93.1
HPLM + 10% dialyzed FBS, 0.569 µM	109	111	95.4
HPLM + 10% dialyzed FBS, 1.71 µM	61	120	86.5
HPLM + 10% dialyzed FBS, 5.12 µM	29.7	115	81.6
HPLM + 10% dialyzed FBS, 15.4 µM	19.8	23.2	84.3
HPLM + 10% dialyzed FBS, 46.1 µM	25.7	15.1	79.3
RPMI 5 mM glucose + 10% FBS, 0.000781 µM	88.2	99.8	82.5
RPMI 5 mM glucose + 10% FBS, 0.00234 µM	109	120	85.6
RPMI 5 mM glucose + 10% FBS, 0.00702 µM	105	122	88.9
RPMI 5 mM glucose + 10% FBS, 0.0211 µM	106	111	89.3
RPMI 5 mM glucose + 10% FBS, 0.0632 µM	96.7	116	84.8
RPMI 5 mM glucose + 10% FBS, 0.19 µM	97.5	116	101
RPMI 5 mM glucose + 10% FBS, 0.569 µM	106	121	88.4
RPMI 5 mM glucose + 10% FBS, 1.71 µM	29.3	121	104
RPMI 5 mM glucose + 10% FBS, 5.12 µM	15.1	119	92.2
RPMI 5 mM glucose + 10% FBS, 15.4 µM	14.3	34.4	101
RPMI 5 mM glucose + 10% FBS, 46.1 µM	10.2	25.3	82.2
RPMI 5 mM glucose + 10% dialyzed FBS, 0.000781 µM	107	97.1	72.2
RPMI 5 mM glucose + 10% dialyzed FBS, 0.00234 µM	110	109	83.9
RPMI 5 mM glucose + 10% dialyzed FBS, 0.00702 µM	109	112	96
RPMI 5 mM glucose + 10% dialyzed FBS, 0.0211 µM	110	101	98.4
RPMI 5 mM glucose + 10% dialyzed FBS, 0.0632 µM	105	113	117
RPMI 5 mM glucose + 10% dialyzed FBS, 0.19 µM	103	111	92
RPMI 5 mM glucose + 10% dialyzed FBS, 0.569 µM	113	116	105
RPMI 5 mM glucose + 10% dialyzed FBS, 1.71 µM	68.6	110	71.8
RPMI 5 mM glucose + 10% dialyzed FBS, 5.12 µM	20.8	103	93.2
RPMI 5 mM glucose + 10% dialyzed FBS, 15.4 µM	19.6	79.9	85.7
RPMI 5 mM glucose + 10% dialyzed FBS, 46.1 µM	18.9	62	62.4

AUC of viability dose-response curve
Settings	NOMO1 [4]	P12-Ichikawa [5]	SEM cells [6]
HPLM + 10% dialyzed FBS	365	419	388
RPMI 5 mM glucose + 10% FBS	339	425	434
RPMI 5 mM glucose + 10% dialyzed FBS	362	452	425
